Data from US11072582B2 (Epics Therapeutics, priority 2009, dated 2021).

Tested on: adipocytes isolated from normal rat
Assay: Lipolysis assay in isolated adipocytes (isoprenaline-induced)
Format: cell-based
Settings: 30 μM, FIG. 1
Experimental: Animals are killed by cervical dislocation and epididymal fat pads are removed and digested in collagenase buffer at 37° C./120 rpm for approximately 50 minutes.
After the pre-treatment, Isoprenaline (1 μM) is added to the adipocytes followed by 30 min incubation at 37° C./150 rpm. The reactions are put on ice and the buffer is assayed spectrophotometrically for the production of NADH^+ from glycerol breakdown in reactions catalyzed by glycerol kinase and glycero 1-3-phosphate dehydrogenase and/or Non Esterified Fatty Acid (NEFA). Each data point is investigated in triplicates in two independent experiments.

Cc1ccc(-c2ccc(C(=O)N3[C@@H](c4ccccc4Cl)CC[C@H]3C(=O)O)cc2)cc1 [Compound 5]
inhibition of isoprenaline-induced lipolysis: inhibit isoprenaline-induced lipolysis
